Assay results published in article PMC6691761, “Potential multifunctional agents with anti-hepatoma and anti-inflammation properties by inhibiting NF-кB activation” (Journal of Enzyme Inhibition and Medicinal Chemistry, 2019).

What was measured:
[1] = test system: p-p65 in LPS-stimulated RAW264.7 cells; assay: LPS-stimulated phosphorylation of p65 in RAW264.7 cells; format: cell-based; conditions: RAW264.7, 1.0, 2.0, 4.0 μM
Protocol: The HepG2 cells were treated with BAP 96 at different concentrations (1.0, 2.0, and 4.0 µM) for 3 h, and washed twice by PBS. The cells were lysed and the extracted proteins of cell lysates were separated by 10% SDS-PAGE gel electrophoresis, then transferred onto polyvinylidene fluorides membranes. The membranes were probed with antibodies and visualized using an enhanced chemiluminescence (ECL) detection kit.
It is known that NF-κB has been implicated in the crossroad of inflammation and cancer[25]^,[26]. In our previous study, some BAPs (such as 23 and 67) could inhibit NF-κB activation by inhibiting the phosphorylation of NF-κB (P65) and IκB[13]^,[14]. Herein, it is an urgent to resolve whether 96 has the same mechanism of action as 23 and 67. Therefore, the RAW264.7 cells were pretreated with LPS, and then treated with different concentrations (1.0, 2.0, 4.0 μM) of 96. […] Similarly, the HepG2 cells were pretreated with TNF-α, then treated with different concentrations (1.0, 2.0, and 4.0 μM) of 96.

[2] = test system: NF-κB p65 nuclear translocation in TNF-α-stimulated HepG2 cells; assay: NF-κB p65 nuclear translocation, immunofluorescence, HepG2; format: cell-based, human; conditions: HepG2, TNF-α 10 ng/mL, 4.0 μM
Protocol: RAW264.7 cells were pretreated in 96-well plates with LPS (1 μg/mL) for 15 min and then treated with 96 for 2 h. Similarly, HepG2 cells were pretreated with TNF-α (10 ng/mL) for 15 min and then treated with 96 for 4 h. The cells were fixed with 2% paraformaldehyde for 15 min at 37 °C and permeabilized using 0.1% Triton X-100 for 10 min at RT. After blockage with 3% BSA for 30 min, the cells were incubated with anti-NF-κB p65 antibody (NOVUS BIOLOGICALS, Colorado, USA) at 4 °C overnight. After washing, the anti-mouse Alexa488-conjugated secondary antibody (Jackson Immuno Research, West Grove, PA) was incubated for 30 min at RT. After washed with PBS, the cells were incubated in 4-6-diamidino-2-phenyindole (DAPI; Sigma, St. Louis, MO) for 15 min in the dark at RT. The cell images were simultaneously viewed using a microscopy system in High Throughput Screen (Operetta, PerkinElmer, Waltham, MA).

With `CN1CC(=Cc2cccc(N=Cc3cc(Br)ccc3O)c2)C(=O)C(=Cc2ccccc2F)C1` [Compound 96] the “Expression level of LPS-induced p-p65” value [1] was “effectively decreased in a dose-dependent manner” and the p65 nuclear translocation [2] was “prevented the p65 nuclear translocation”.
